Results from article PMC9266917, “New Peptide Functionalized Nanostructured Lipid Carriers with CNS Drugs and Evaluation Anti-proliferative Activity” (International Journal of Molecular Sciences, 2022).

Key:
[1] = preliminary solubility studies; drug added with stirring until saturation of the lipid; Compritol 888 ATO (melted, 80 °C), Transcutol HP and Miglyol (room temperature); n = 3
Experimental: Increasing amounts of TCP were successively added, with stirring, until saturation of the lipid was achieved. The saturation point occurred when the excess of solid TCP persisted for more than 8 h. Each determination was carried out in triplicate (n = 3).

Caco-2 cell line [2] = test: Cell morphology visualization by microscope, Caco-2; type: cell-based; details: Caco-2, 24 h incubation, 10 µM
Experimental: (§1) After the treatments, cell morphology and growth were assessed by contrast phase microscope Lionheart FX (Biotech, USA) with use of Gen5 software (Biotech, USA) and a Leica DMI 6000B microscope equipped with a Leica DFC350 FX camera and then analyzed with the Leica LAS X imaging software (v3.7.4).

Caco-2 cell line [3] = test: MTT cell viability assay, Caco-2; type: cell-based; details: Caco-2, 24 h incubation, free peptide or conjugate at 10 µM, n = 3 or 6
Experimental: The MTT assay was conducted to determine metabolic activity of cells and assess cellular viability. Cells were maintained in culture incubated with DMEM further supplemented with 10% of heat-inactivated fetal bovine serum (FBS) and 1% penicillin and streptomycin at 37 °C in a controlled atmosphere of 5% CO2 (according to the ATCC recommendations). Before the experiment, SH-SY5Y cells and Caco-2 cell line were seeded in sterile, flat-bottom 96-well plates at the density of 18,000 cells per well and 6000 cells per well, respectively, and incubated for 24 h. […] Then the cells were incubated for 24 h and both negative and positive control were included with incubation with culture media and sterilized water (5:1) and DMSO 10% to promote the cell lyses, respectively. After incubation, all media was aspirated and replaced with 100 μL of MTT solution (at 0.5 mg/mL). Then, cells were incubated for 3 h in the dark. […] The absorbance was measured at 570 nm in a microplate reader (Synergy HT, Biotech Instruments inc., Winoosk, USA and Tecan Infinite M200, Tecan group Ltd., Männedorf, Switzerland). All experiments were performed in triplicates and the relative cell viability (%) was compared to control cells and calculated using the following equation: Cell viability (% of sample)=Abs sample/Abs control×100

SH-SY5Y cell line = test: Cell morphology visualization by microscope, SH-SY5Y; type: cell-based, human; details: 24 h incubation, 1 µM
Experimental: as §1

Row | Molecule | solubility in lipids [1] | cell viability and morphology by microscope visualization (Caco-2 cell line [2]) | decrease of cell viability (Caco-2 cell line [3]) [%] | cell viability and morphology by microscope visualization (SH-SY5Y cell line)
1 | N[C@@H]1C[C@H]1c1ccccc1 (racemic) [TCP, (±)-trans-2-Phenylcyclopropylamine] | maximum solubility level in liquid lipid Transcutol HP |  |  | 
2 | KLALKLALKALKAALKLA-NH2 [MAP, model amphipathic peptide, cell-penetrating peptide] |  | decrease of cell viability and substantial morphologic changes | 20 | decreased substantial cell viability and showed some morphologic change with loss of normal cellular structure and round aspect
